Measured values taken from PubChem BioAssay (NCI).
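Growth conditions: 96-well plates. Treatment: test compound, 48 hours, 5 concentrations. Analysis: linear interpolation between bracketing concentrations; unreached endpoints set to highest concentration. TGI is the concentration that stops growth completely.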

How the values were obtained:
Experiment in all cases: inhibition of tumour cell growth, NCI panel, 48 h
[1] = tested on: NCI-H460 lung
[2] = tested on: SR leukemia
[3] = tested on: SNB-78 CNS
[4] = tested on: U251 CNS
[5] = tested on: HOP-18 NSCLC
[6] = tested on: KM20L2 colon
[7] = tested on: MALME-3M melanoma
[8] = tested on: NCI-H522 lung
[9] = tested on: LOX IMVI melanoma
[10] = tested on: SK-MEL-28 melanoma
[11] = tested on: CCRF-CEM leukemia
[12] = tested on: M14 melanoma
[13] = tested on: OVCAR-3 ovarian
[14] = tested on: DMS 273 small cell lung
[15] = tested on: NCI-H226 lung
[16] = tested on: SF-268 CNS
[17] = tested on: OVCAR-8 ovarian
[18] = tested on: SNB-19 CNS
[19] = tested on: HOP-92 NSCLC
[20] = tested on: OVCAR-4 ovarian
[21] = tested on: HL-60(TB) leukemia
[22] = tested on: EKVX NSCLC
[23] = tested on: K-562 leukemia
[24] = tested on: UACC-257 melanoma
[25] = tested on: SK-OV-3 ovarian
[26] = tested on: SF-295 CNS
[27] = tested on: DLD-1 colon
[28] = tested on: ACHN renal
[29] = tested on: SK-MEL-5 melanoma
[30] = tested on: HCC-2998 colon
[31] = tested on: HT29 colon
[32] = tested on: SF-539 CNS
[33] = tested on: UO-31 renal
[34] = tested on: NCI-H23 lung
[35] = tested on: LXFL 529 NSCLC
[36] = tested on: A498 renal
[37] = tested on: CAKI-1 renal
[38] = tested on: SK-MEL-2 melanoma
[39] = tested on: RPMI-8226 leukemia
[40] = tested on: HCT-116 colon
[41] = tested on: SN12C renal
[42] = tested on: DMS 114 small cell lung
[43] = tested on: HOP-62 NSCLC
[44] = tested on: COLO 205 colon
[45] = tested on: RXF 393 renal
[46] = tested on: IGROV1 ovarian
[47] = tested on: KM12 colon
[48] = tested on: HCT-15 colon
[49] = tested on: UACC-62 melanoma
[50] = tested on: OVCAR-5 ovarian
[51] = tested on: 786-0 renal
[52] = tested on: A549 NSCLC
[53] = tested on: RXF-631 renal
[54] = tested on: M19-MEL melanoma
[55] = tested on: MOLT-4 leukemia
[56] = tested on: TK-10 renal
[57] = tested on: SW-620 colon
[58] = tested on: SNB-75 CNS
[59] = tested on: XF 498 CNS

Measured: TGI

O=[As](O)(O)c1cc(N=Nc2ccc(-c3ccc(N=Nc4cc([As](=O)(O)O)c(O)cc4O)cc3)cc2)c(O)cc1O
> 78.4 µM: [13]
> 100 µM: [1] | [2] | [3] | [4] | [5] | [6] | [7] | [8] | [9] | [10] | [12] | [14] | [15] | [16] | [17] | [18] | [19] | [22] | [23] | [24] | [25] | [26] | [28] | [29] | [30] | [31] | [32] | [33] | [34] | [35] | [37] | [38] | [39] | [40] | [41] | [42] | [43] | [44] | [45] | [46] | [47] | [48] | [49] | [51] | [52] | [53] | [54] | [55] | [56] | [57] | [58]
> 56.8 µM: [20]
> 59.2 µM: [27]
> 73.4 µM: [36]
97.6 µM: [50]
> 80 µM: [11]
> 67.6 µM: [21]

Nc1ccc(C(=O)N/C(=C\C=C\c2ccco2)c2nc3[nH]c(=S)[nH]c(=O)c3[nH]2)cc1
> 100 µM: [2] | [3] | [4] | [6] | [7] | [8] | [10] | [11] | [12] | [13] | [14] | [16] | [17] | [18] | [19] | [20] | [22] | [23] | [25] | [26] | [27] | [28] | [29] | [30] | [31] | [32] | [33] | [34] | [35] | [37] | [38] | [59] | [41] | [44] | [45] | [46] | [47] | [48] | [50] | [51] | [52] | [53] | [54] | [55] | [56] | [57]

NC(=O)COc1ccccc1
> 100 µM: [1] | [2] | [3] | [4] | [6] | [7] | [8] | [9] | [10] | [11] | [12] | [13] | [14] | [15] | [16] | [17] | [18] | [19] | [20] | [21] | [22] | [23] | [24] | [25] | [26] | [27] | [28] | [29] | [30] | [31] | [32] | [33] | [34] | [35] | [36] | [37] | [38] | [59] | [39] | [40] | [41] | [42] | [43] | [44] | [45] | [46] | [47] | [48] | [49] | [50] | [51] | [52] | [53] | [54] | [55] | [56] | [57] | [58]
